Laboratory results: US20250136722A1, “CYTOTOXICITY TARGETING CHIMERAS” (GLAXOSMITHKLINE INTELLECTUAL PROPERTY DEVELOPMENT LIMITED, priority 2021, published 2025)
Values joined by “and” are separate entries in the source; they are usually repeats but may differ in a detail not shown here. Identical values can stand only once.

Assays:
[1] = molecular target: T1, CHOK1 cells engineered to overexpress human CCR2 (Homo sapiens, UniProt P41597); experiment: Antibody dependent cellular cytotoxicity (ADCC) reporter assay (Example 199); assay type: cell-based; settings: with anti-cotinine antibody SEQ ID NO: 11/12; CHOK1-human CCR2 target cells, Jurkat FcγRIIIa NFAT-luciferase reporter cells; 12-18 hours; read-out: ADCC Reporter Assay pEC50 (converted)
T1 construct: expressed in transfected cells; host or cells: CHOK1 cells
Procedure, shortened: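 Potency is reported as pEC50 from a nonlinear fit, averaged over runs, using luciferase signal divided by that of compound-free wells. The readout comes from NFAT-luciferase Jurkat cells expressing FcγRIIIa, mixed for 12–18 h with human CCR2-overexpressing CHOK1 cells, 1 pM–10 μM ARM compound and 0.01–200 μg/mL Fc-enhanced anti-cotinine IgG1.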

[2] = molecular target: Anti-cotinine antibody (SEQ ID NO: 11 / SEQ ID NO: 12, rabbit variable region with human IgG1 Fc domain); experiment: Binding of anti-cotinine antibody to ARM compounds by SPR, Biacore T200, 37° C. (Example 202); settings: pH 7.4, rabbit variable region/human IgG1 Fc antibody captured on protein A
Protocol: Anti-cotinine antibodies having a heavy chain sequence of SEQ ID NO: 11 and a light chain sequence of SEQ ID NO: 12 (rabbit variable region with human IgG1 Fc domain containing a DE mutation (S239D/1332E)) were captured on one or more flow cells of a protein A sensor chip (Cytiva) using a Biacore T200 while reserving flow cell 1 as a reference. Following capture, a 3000 second wait step was included to reduce drift during compound analysis. ARM compounds of Formula (I) were then injected at 100 μL/min with 200 and 2000 second association and dissociation times. The entire experiment was run at 37° C. with running buffer containing 10 mM HEPES pH 7.4, 150 mM NaCl, 0.005% P20 and 1% DMSO. ARM compounds of Formula (I) were titrated with a top concentration of 200 nM using a 3-fold 5-point dilution series and a corresponding 5-injection buffer cycle was run for blank subtraction. Data were double referenced by subtracting the response of the reference flow cell from that of the antibody-containing flow cell and subsequently subtracting the referenced blank sensorgrams. Following compound analysis, the surface was regenerated using a 30 second injection of pH 1.5 glycine at a flow rate of 30 μL/min after which antibody was re-captured. The experiment was run using Biacore T200 control software and evaluated using Biacore T200 Evaluation software. Curves were fit with a 1:1 kinetic binding model to obtain kon(1/Ms), koff(1/s), Kd (M) determined as koff/kon, and residence time determined as 1/koff. (s).
Anti-cotinine antibody was tested for binding to ARMs compounds of Formula (I) of the invention in the above assay in or more experimental runs and the results are shown in Table 5 below. Affinity is reported as a pKd value. The pKd value is the negative log of the Kd value, wherein the Kd value is the dissociation constant measured in molar (M) as noted above. For compounds tested in more than one experimental run, the pKd value is reported as an average.

| Structure (SMILES) | EC50 [1] | pKd of Antibody for ARM Compound of Formula (I) [2] |
| --- | --- | --- |
| CC(C)N(C)[C@@H]1CC[C@H](N2CC[C@H](Nc3ncnc4ccc(C(F)(F)F)cc34)C2=O)[C@H](NC(=O)[C@H]2CC[C@@H](NC(=O)CCOCCNC(=O)COCCNC(=O)[C@H]3CC(=O)N(C)[C@@H]3c3cccnc3)CC2)C1 [Example 98, (2S,3S)-N-(2-(2-((2-(3-(((1S,4s)-4-(((1R,2S,5R)-5-(Isopropyl(methyl)amino)-2-((S)-2-oxo-3-((6-(trifluoromethyl)quinazolin-4-yl)amino)pyrrolidin-1-yl)cyclohexyl)carbamoyl)cyclohexyl)amino)-3-oxopropoxy)ethyl)amino)-2-oxoethoxy)ethyl)-1-methyl-5-oxo-2-(pyridin-3-yl)pyrrolidine-3-carboxamide] | 1 nM and 0.631 nM | 9.0095 |
| CC(C)N(C)[C@@H]1CC[C@H](N2CC[C@H](Nc3ncnc4ccc(C(F)(F)F)cc34)C2=O)[C@H](NC(=O)CCOCCNC(=O)[C@H]2CC[C@H](NC(=O)COCCNC(=O)[C@H]3CC(=O)N(C)[C@@H]3c3cccnc3)CC2)C1 [Example 108] | 0.0501 nM | 8.9855 |
| CN1C(=O)C[C@H](C(=O)NCCOCC(=O)NCCOCC(=O)NCCOCCC(=O)N[C@@H]2C[C@H](NC(C)(C)C)CC[C@@H]2N2CC[C@H](Nc3ncnc4ccc(C(F)(F)F)cc34)C2=O)[C@H]1c1cccnc1 [Example 103] | 1.56 nM and 0.577 nM | 9.0985 |
| CC(C)N(C)[C@@H]1CC[C@H](N2CC[C@H](Nc3ncnc4ccc(C(F)(F)F)cc34)C2=O)[C@H](NC(=O)CCNC2CCC3(CC2)CCN(CCCNC(=O)[C@H]2CC(=O)N(C)[C@@H]2c2cccnc2)CC3)C1 [Example 138, (2S,3S)-N-(3-(9-((3-(((1R,2S,5R)-5-(Isopropyl(methyl)amino)-2-((S)-2-oxo-3-((6-(trifluoromethyl)quinazolin-4-yl)amino)pyrrolidin-1-yl)cyclohexyl)amino)-3-oxopropyl)amino)-3-azaspiro[5.5]undecan-3-yl)propyl)-1-methyl-5-oxo-2-(pyridin-3-yl)pyrrolidine-3-carboxamide] | 3.98 nM | 9.0865 |
| CC(C)N(C)[C@@H]1CC[C@H](N2CC[C@H](Nc3ncnc4ccc(C(F)(F)F)cc34)C2=O)[C@H](NC(=O)CCCNc2c(NCCOCCOCCOCCOCCNC(=O)[C@H]3CC(=O)N(C)[C@@H]3c3cccnc3)c(=O)c2=O)C1 [Example 164, (2S,3S)-N-(14-((2-((4-(((1R,2S,5R)-5-(Isopropyl(methyl)amino)-2-((S)-2-oxo-3-((6-(trifluoromethyl)quinazolin-4-yl)amino)pyrrolidin-1-yl)cyclohexyl)amino)-4-oxobutyl)amino)-3,4-dioxocyclobut-1-en-1-yl)amino)-3,6,9,12-tetraoxatetradecyl)-1-methyl-5-oxo-2-(pyridin-3-yl)pyrrolidine-3-carboxamide] | 1.35 nM | 9.3225 |
| CC(C)N(C)[C@@H]1CC[C@H](N2CC[C@H](Nc3ncnc4ccc(C(F)(F)F)cc34)C2=O)[C@H](NC(=O)COCCNC(=O)CCOCCNC(=O)COCCNC(=O)[C@H]2CC(=O)N(C)[C@@H]2c2cccnc2)C1 [Example 104, (2S,3S)-N-(18-(((1R,2S,5R)-5-(Isopropyl(methyl)amino)-2-((S)-2-oxo-3-((6-(trifluoromethyl)quinazolin-4-yl)amino)pyrrolidin-1-yl)cyclohexyl)amino)-5,12,18-trioxo-3,9,16-trioxa-6,13-diazaoctadecyl)-1-methyl-5-oxo-2-(pyridin-3-yl)pyrrolidine-3-carboxamide] | 2.28 nM | 9.051 |
| CC(C)N(C)[C@@H]1CC[C@H](N2CC[C@H](Nc3ncnc4ccc(C(F)(F)F)cc34)C2=O)[C@H](NC(=O)[C@H]2C[C@H](NC(=O)CCOC[C@H]3CC[C@H](COCCNC(=O)[C@H]4CC(=O)N(C)[C@@H]4c4cccnc4)CC3)C2)C1 [Example 54] | 1 nM | 9.5515 |
| CC(C)N(C)[C@@H]1CCC(N2CC[C@H](Nc3ncnc4ccc(C(F)(F)F)cc34)C2=O)[C@H](NC(=O)CCOCCOCCOCCOCCOCCOCCOCCOCCNC(=O)[C@H]2CC(=O)N(C)[C@@H]2c2cccnc2)C1 (some centres unmarked) [Example 42] | 0.398 nM | 9.23 |
| CC(C)N(C)[C@@H]1CC[C@H](N2CC[C@H](Nc3ncnc4ccc(C(F)(F)F)cc34)C2=O)[C@H](NC(=O)CCOCCOCCOCCNc2c(NCCCNC(=O)[C@H]3CC(=O)N(C)[C@@H]3c3cccnc3)c(=O)c2=O)C1 [compound 169] | 1.05 nM | 9.0085 |
| CC(C)N(C)[C@@H]1CC[C@H](N2CC[C@H](Nc3ncnc4ccc(C(F)(F)F)cc34)C2=O)[C@H](NC(=O)[C@H]2CC[C@@H](NC(=O)CCCO[C@H]3CC[C@@H](OCCNC(=O)[C@H]4CC(=O)N(C)[C@@H]4c4cccnc4)CC3)CC2)C1 [Example 3] | 0.155 nM and 0.283 nM | 9.2795 |
| CC(C)N(C)[C@@H]1CC[C@H](N2CC[C@H](Nc3ncnc4ccc(C(F)(F)F)cc34)C2=O)[C@H](NC(=O)COCCNC(=O)CCOCCOCCNC(=O)CCNC(=O)[C@H]2CC(=O)N(C)[C@@H]2c2cccnc2)C1 [Example 50] | 1.41 nM | 9.1485 |
| CC(C)N(C)[C@@H]1CC[C@H](N2CC[C@H](Nc3ncnc4ccc(C(F)(F)F)cc34)C2=O)[C@H](NC(=O)CCOCCNC(=O)CCCO[C@H]2CC[C@@H](OCCNC(=O)[C@H]3CC(=O)N(C)[C@@H]3c3cccnc3)CC2)C1 [Example 6] | 0.378 nM | 9.282 |
| CC(C)N(C)[C@@H]1CC[C@H](N2CC[C@H](Nc3ncnc4ccc(C(F)(F)F)cc34)C2=O)[C@H](NC(=O)[C@H]2CC[C@@H](NC(=O)CCCC(=O)NCCCC(=O)NCCCNC(=O)[C@H]3CC(=O)N(C)[C@@H]3c3cccnc3)CC2)C1 [Example 56, N-((1S,4s)-4-(((1R,2S,5R)-5-(Isopropyl(methyl)amino)-2-((S)-2-oxo-3-((6-(trifluoromethyl)quinazolin-4-yl)amino)pyrrolidin-1-yl)cyclohexyl)carbamoyl)cyclohexyl)-N^5-(4-((3-((2S,3S)-1-methyl-5-oxo-2-(pyridin-3-yl)pyrrolidine-3-carboxamido)propyl)amino)-4-oxobutyl)glutaramide] | 0.655 nM and 0.128 nM | 9.3185 |
| CC(C)N(C)[C@@H]1CC[C@H](N2CC[C@H](Nc3ncnc4ccc(C(F)(F)F)cc34)C2=O)[C@H](NC(=O)CCCC(=O)NCCCOCCCNC(=O)CCCNC(=O)[C@H]2CC(=O)N(C)[C@@H]2c2cccnc2)C1 [Example 173, N^1-((1R,2S,5R)-5-(Isopropyl(methyl)amino)-2-((S)-2-oxo-3-((6-(trifluoromethyl)quinazolin-4-yl)amino)pyrrolidin-1-yl)cyclohexyl)-N5-(3-(3-(4-((2S,3S)-1-methyl-5-oxo-2-(pyridin-3-yl)pyrrolidine-3-carboxamido)butanamido)propoxy)propyl)glutaramide] | 0.794 nM | 9.1415 |
| CC(C)N(C)[C@@H]1CC[C@H](N2CC[C@H](Nc3ncnc4ccc(C(F)(F)F)cc34)C2=O)[C@H](NC(=O)CCCC(=O)N[C@H]2CC[C@@H](CNC(=O)CCOCCNC(=O)[C@H]3CC(=O)N(C)[C@@H]3c3cccnc3)CC2)C1 [Example 179, N^1-((1R,2S,5R)-5-(isopropyl(methyl)amino)-2-((S)-2-oxo-3-((6-(trifluoromethyl)quinazolin-4-yl)amino)pyrrolidin-1-yl)cyclohexyl)-N^5-((1R,4S)-4-((3-(2-((2S,3S)-1-methyl-5-oxo-2-(pyridin-3-yl)pyrrolidine-3-carboxamido)ethoxy)propanamido)methyl)cyclohexyl)glutaramide] | 0.724 nM | 9.24 |
| CC(C)N(C)[C@@H]1CC[C@H](N2CC[C@H](Nc3ncnc4ccc(C(F)(F)F)cc34)C2=O)[C@H](NC(=O)[C@H]2CC[C@@H](NC(=O)CNC(=O)CCOCCOCCNC(=O)[C@H]3CC(=O)N(C)[C@@H]3c3cccnc3)CC2)C1 [Example 83] | 0.269 nM | 9.302 |
